Consider 26 compounds from patent US10479777B2, “Herbicidal azines” (BASF SE, priority 2013, dated 2019).

What all share (assay): greenhouse test, pre-emergence treatment
Assay type in all cases: in vivo
Details in all cases: scale from 0 to 100

One test deals with Amaranthus retroflexus. The source says: (§1) The culture containers used were plastic flowerpots containing loamy sand with approximately 3.0% of humus as the substrate. The seeds of the test plants were sown separately for each species.
(§2) For the pre-emergence treatment, the active ingredients, which had been suspended or emulsified in water, were applied directly after sowing by means of finely distributing nozzles. The containers were irrigated gently to promote germination and growth and subsequently covered with transparent plastic hoods until the plants had rooted. This cover caused uniform germination of the test plants, unless this had been impaired by the active ingredients. For the post-emergence treatment, the test plants were first grown to a height of 3 to 15 cm, depending on the plant habit, and only then treated with the active ingredients which had been suspended or emulsified in water. For this purpose, the test plants were either sown directly and grown in the same containers, or they were first grown separately as seedlings and transplanted into the test containers a few days prior to treatment.
(§3) Depending on the species, the plants were kept at 10-25° C. or 20-35° C., respectively. The test period extended over 2 to 4 weeks. During this time, the plants were tended, and their response to the individual treatments was evaluated.
(§4) Evaluation was carried out using a scale from 0 to 100. 100 means no emergence of the plants, or complete destruction of at least the aerial moieties, and 0 means no damage, or normal course of growth. A moderate herbicidal activity is given at values of at least 60, a good herbicidal activity is given at values of at least 70, and a very good herbicidal activity is given at values of at least 85.
(§5) The plants used in the greenhouse experiments were of the following species: […]

A further test has as its system Echinocloa crus-galli.
Text: as §1, §2, §3, §4, §5

A further test has as its system Setaria faberi.
Text: as §1, §2, §3, §4, §5

For the next test, the system named is Abutilon theophrasti.
Text: as §1, §2, §3, §4, §5

A further test relates to Apera spica-venti.
Text: as §1, §2, §3, §4, §5

Turning to `Nc1nc(Nc2c(F)c(F)nc(F)c2F)nc(C2(Cl)CCCC2)n1` [Example 58], the herbicidal activity result in the test on Amaranthus retroflexus (250 g/ha), with Echinocloa crus-galli (250 g/ha) and in the test with Setaria faberi (250 g/ha) was “very good (a very good herbicidal activity is given at values of at least 85)” in each case.

Take `CC(C)(C#N)c1nc(N)nc(Nc2c(F)c(F)nc(F)c2F)n1` [Example 57]: the herbicidal activity entry in the test with Amaranthus retroflexus (250 g/ha) and in the test on Abutilon theophrasti (250 g/ha) was “very good (a very good herbicidal activity is given at values of at least 85)” in each case.

Regarding `COC(C)(C)c1nc(N)nc(Nc2nc(F)c(F)c(Cl)c2F)n1` [Example 22], the herbicidal activity result in the test with Amaranthus retroflexus (250 g/ha) is “very good (a very good herbicidal activity is given at values of at least 85)”.

Turning to `CC1(c2nc(N)nc(Nc3c(F)c(F)nc(F)c3F)n2)CCCC1` [Example 67], in the test on Amaranthus retroflexus (250 g/ha), the herbicidal activity entry is “very good (a very good herbicidal activity is given at values of at least 85)”.

For the compound `CCC(F)c1nc(N)nc(Nc2c(F)c(F)nc(F)c2F)n1` (centres unmarked) [Example 63], the herbicidal activity entry with Amaranthus retroflexus (125 g/ha), with Abutilon theophrasti (125 g/ha) and with Setaria faberi (125 g/ha) was “very good (a very good herbicidal activity is given at values of at least 85)” throughout.

Turning to `CCC(C)(F)c1nc(N)nc(Nc2nc(F)c(F)cc2F)n1` (racemic) [Example 14], the herbicidal activity entry in the test with Amaranthus retroflexus (62.5 g/ha), in the test with Abutilon theophrasti (62.5 g/ha) and with Setaria faberi (62.5 g/ha) was “very good (a very good herbicidal activity is given at values of at least 85)” throughout.

Turning to `Nc1nc(Nc2c(F)c(F)nc(F)c2F)nc(C2(F)CCC2)n1` [Example 70], the herbicidal activity entry is “very good (a very good herbicidal activity is given at values of at least 85)” in the test with Amaranthus retroflexus (1000 g/ha) and “good (a good herbicidal activity is given at values of at least 70)” in the test on Apera spica-venti (1000 g/ha).

With `Cc1c(F)c(F)nc(Nc2nc(N)nc(C(C)(C)F)n2)c1F` [Example 29], the herbicidal activity result with Amaranthus retroflexus (125 g/ha), in the test on Abutilon theophrasti (125 g/ha) and with Setaria faberi (125 g/ha) was “very good (a very good herbicidal activity is given at values of at least 85)” throughout.

On to `CC(C)(F)c1nc(N)nc(Nc2nc(F)c(F)c(OS(C)(=O)=O)c2F)n1` [Example 37], for which the herbicidal activity result in the test with Amaranthus retroflexus (250 g/ha) is reported as “very good (a very good herbicidal activity is given at values of at least 85)”; in the test with Apera spica-venti (250 g/ha) it was “good (a good herbicidal activity is given at values of at least 70)”.

Regarding `COc1c(F)c(F)nc(Nc2nc(N)nc(C(C)(C)F)n2)c1F` [Example 31], the herbicidal activity entry in the test on Amaranthus retroflexus (250 g/ha), with Abutilon theophrasti (250 g/ha) and in the test on Setaria faberi (250 g/ha) was “very good (a very good herbicidal activity is given at values of at least 85)” in each case.

Consider `Nc1nc(Nc2c(F)c(F)nc(F)c2F)nc(C(F)(F)F)n1` [Example 50], for which the herbicidal activity entry in the test with Amaranthus retroflexus (500 g/ha) is recorded as “very good (a very good herbicidal activity is given at values of at least 85)”; in the test with Apera spica-venti (500 g/ha) it was “good (a good herbicidal activity is given at values of at least 70)”.

With `CC1(c2nc(N)nc(Nc3c(F)c(F)nc(F)c3F)n2)CCCCC1` [Example 68], the herbicidal activity entry in the test on Amaranthus retroflexus (250 g/ha) is reported as “very good (a very good herbicidal activity is given at values of at least 85)”.

For the compound `CCC(F)(CC)c1nc(N)nc(Nc2c(F)c(F)nc(F)c2F)n1` [Example 71], the herbicidal activity result with Amaranthus retroflexus (250 g/ha), in the test on Abutilon theophrasti (250 g/ha) and in the test on Setaria faberi (250 g/ha) was “very good (a very good herbicidal activity is given at values of at least 85)” in each case.

For `CC1CCC(c2nc(N)nc(Nc3c(F)c(F)nc(F)c3F)n2)CC1` (centres unmarked) [Example 64], the herbicidal activity entry in the test with Amaranthus retroflexus (250 g/ha), in the test with Abutilon theophrasti (250 g/ha) and with Setaria faberi (250 g/ha) was “very good (a very good herbicidal activity is given at values of at least 85)” in each case.

For `CC(C)(C)c1nc(N)nc(Nc2c(F)c(F)nc(F)c2F)n1` [Example 62], the herbicidal activity entry in the test with Amaranthus retroflexus (250 g/ha), in the test with Abutilon theophrasti (250 g/ha) and with Setaria faberi (250 g/ha) was “very good (a very good herbicidal activity is given at values of at least 85)” each time.

Turning to `CCC(F)(CC)c1nc(N)nc(Nc2nc(F)c(F)c(Cl)c2F)n1` [Example 30], the herbicidal activity entry in the test on Amaranthus retroflexus (250 g/ha), in the test with Echinocloa crus-galli (250 g/ha) and in the test with Setaria faberi (250 g/ha) was “very good (a very good herbicidal activity is given at values of at least 85)” in each case.

Take `Nc1nc(Nc2nc(F)c(F)c(Cl)c2F)nc(C2CCCC2)n1` [Example 17]: the herbicidal activity result with Amaranthus retroflexus (250 g/ha) is listed as “good (a good herbicidal activity is given at values of at least 70)”.

Regarding `CC(C)(F)c1nc(N)nc(Nc2c(F)ccnc2F)n1` [Example 48], the herbicidal activity entry with Amaranthus retroflexus (125 g/ha) is “very good (a very good herbicidal activity is given at values of at least 85)”.

On to `CCC(C)(F)c1nc(N)nc(Nc2c(F)c(F)nc(F)c2F)n1` (centres unmarked) [Example 52], for which the herbicidal activity result in the test with Amaranthus retroflexus (250 g/ha), with Echinocloa crus-galli (250 g/ha) and with Abutilon theophrasti (250 g/ha) was “very good (a very good herbicidal activity is given at values of at least 85)” in each case.

Consider `Nc1nc(Nc2nc(F)c(F)c(Cl)c2F)nc(C2(F)CCCC2)n1` [Example 12], for which the herbicidal activity result in the test on Amaranthus retroflexus (125 g/ha), in the test with Echinocloa crus-galli (125 g/ha) and in the test on Setaria faberi (125 g/ha) was “very good (a very good herbicidal activity is given at values of at least 85)” each time.

`CCC(C)(F)c1nc(N)nc(Nc2nc(F)c(F)c(Cl)c2F)n1` (centres unmarked) [Example 13]: the herbicidal activity result in the test with Amaranthus retroflexus (62.5 g/ha), with Echinocloa crus-galli (62.5 g/ha) and in the test on Setaria faberi (62.5 g/ha) was “very good (a very good herbicidal activity is given at values of at least 85)” each time.

`COC(C)c1nc(N)nc(Nc2c(F)c(F)nc(F)c2F)n1` (centres unmarked) [Example 61]: the herbicidal activity entry in the test on Amaranthus retroflexus (500 g/ha) and with Abutilon theophrasti (500 g/ha) was “very good (a very good herbicidal activity is given at values of at least 85)” in each case.

Consider `Nc1nc(Nc2c(F)c(F)nc(F)c2F)nc(C2(F)CCCC2)n1` [Example 66], for which the herbicidal activity result in the test with Amaranthus retroflexus (250 g/ha), in the test with Abutilon theophrasti (250 g/ha) and with Setaria faberi (250 g/ha) was “very good (a very good herbicidal activity is given at values of at least 85)” throughout.

Consider `Nc1nc(Nc2nc(F)c(F)c(Cl)c2F)nc(C2(Cl)CCCC2)n1` [Example 11], for which the herbicidal activity result in the test with Amaranthus retroflexus (500 g/ha), with Abutilon theophrasti (500 g/ha) and in the test with Setaria faberi (500 g/ha) was “very good (a very good herbicidal activity is given at values of at least 85)” each time.

On to `CC(C)C(F)c1nc(N)nc(Nc2nc(F)c(F)c(Cl)c2F)n1` (centres unmarked) [Example 32], for which the herbicidal activity result in the test with Amaranthus retroflexus (125 g/ha), in the test with Echinocloa crus-galli (125 g/ha) and with Setaria faberi (125 g/ha) was “very good (a very good herbicidal activity is given at values of at least 85)” in each case.

Turning to `CCC(C)c1nc(N)nc(Nc2c(F)c(F)nc(F)c2F)n1` (centres unmarked) [Example 69], the herbicidal activity result with Amaranthus retroflexus (125 g/ha) and in the test on Abutilon theophrasti (125 g/ha) was “very good (a very good herbicidal activity is given at values of at least 85)” throughout.
